Data set [1] in a line: Cytotoxicity against human Huh5-2 cells assessed as reduction in cell viability measured after 3 days by CellTiter 96 AQueous One Solution Cell Proliferation assay. The data set is classed as cell-based, Huh-5-2.
For data set [2], the target named is RNA-directed RNA polymerase (Hepacivirus hominis) (UniProt O39930). The data set is described as follows: Inhibition of NS5B RNA dependent RNA polymerase in HCV 1b Con1 infected in human Huh5-2 cells assessed as reduction in viral RNA replication measured after 3 days by luciferase reporter gene assay. The data set is classed as cell-based. As to conditions: Hepatitis C virus subtype 1b.
Chain of RNA-directed RNA polymerase (Hepacivirus hominis) (O39930 1-591): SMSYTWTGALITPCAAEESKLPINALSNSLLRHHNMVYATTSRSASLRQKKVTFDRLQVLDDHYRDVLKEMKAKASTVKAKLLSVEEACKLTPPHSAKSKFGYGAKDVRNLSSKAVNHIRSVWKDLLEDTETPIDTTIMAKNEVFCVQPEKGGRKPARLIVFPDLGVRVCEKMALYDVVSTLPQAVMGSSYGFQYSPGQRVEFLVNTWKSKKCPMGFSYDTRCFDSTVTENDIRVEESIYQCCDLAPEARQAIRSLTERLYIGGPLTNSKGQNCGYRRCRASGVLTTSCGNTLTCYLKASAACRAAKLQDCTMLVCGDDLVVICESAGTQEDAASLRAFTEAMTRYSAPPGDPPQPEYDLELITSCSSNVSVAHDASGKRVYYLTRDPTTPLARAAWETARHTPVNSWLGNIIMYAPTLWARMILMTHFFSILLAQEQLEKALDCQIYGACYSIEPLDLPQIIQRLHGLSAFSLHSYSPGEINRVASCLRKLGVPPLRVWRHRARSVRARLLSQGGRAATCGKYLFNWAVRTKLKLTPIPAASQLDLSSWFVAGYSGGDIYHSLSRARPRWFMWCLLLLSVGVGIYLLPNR

For orientation: CC50 means the concentration giving 50% cytotoxicity. As to `COC[C@H]1C[C@@](CC(C)C)(C(=O)O)N(C(=O)c2ccc(C(C)(C)C)c(OC)c2)[C@H]1CN=[N+]=[N-]`, in data set [1], the CC50 at 72 h was greater than 120 µM. The inhibition entry in data set [2] is “Dose-dependent effect”.

Take `COC[C@H]1C[C@@](CC(C)C)(C(=O)O)N(C(=O)c2ccc(C(C)(C)C)c(OC)c2)[C@H]1COC(=O)OC`: the CC50 at 72 h in data set [1] was greater than 120 µM. The inhibition result in data set [2] is “Dose-dependent effect”.

Turning to `COC[C@H]1C[C@@](CC(C)C)(C(=O)O)N(C(=O)c2ccc(C(C)(C)C)c(OC)c2)[C@@H]1c1nccs1`, the CC50 at 72 h in data set [1] amounted to 200 µM. Moreover, the inhibition entry in data set [2] was “Dose-dependent effect”.

Consider `COC[C@H]1C[C@@](CC(C)C)(C(=O)O)N(C(=O)c2ccc(C(C)(C)C)c(OC)c2)[C@H]1c1nccs1`, for which, in data set [1], the CC50 at 72 h was greater than 120 µM. Moreover, the inhibition result in data set [2] was “Dose-dependent effect”.

Regarding `COC[C@H]1C[C@@](CC(C)C)(C(=O)O)N(C(=O)c2ccc(C(C)(C)C)c(OC)c2)[C@H]1COC`, the CC50 at 72 h in data set [1] was greater than 120 µM. Further, the inhibition entry in data set [2] was “Dose-dependent effect”.

For the compound `COC[C@H]1C[C@@](CC(C)C)(C(=O)O)N(C(=O)c2ccc(C(C)(C)C)c(OC)c2)[C@H]1COC(C)=O`, the CC50 at 72 h in data set [1] is greater than 120 µM. For the same compound, the inhibition entry in data set [2] was “Dose-dependent effect”.

`COC[C@H]1C[C@@](CC(C)C)(C(=O)O)N(C(=O)c2ccc(C(C)(C)C)c(OC)c2)[C@H]1[C@H]1COC(=O)O1`: in data set [1], the CC50 at 72 h is greater than 120 µM. Further, the inhibition entry in data set [2] is “Dose-dependent effect”.

Regarding `COC[C@H]1C[C@@](CC(C)C)(C(=O)O)N(C(=O)c2ccc(C(C)(C)C)c(OC)c2)[C@H]1C(N)=O`, in data set [1], the CC50 at 72 h is greater than 120 µM. Moreover, in data set [2], the inhibition entry is “Dose-dependent effect”.

In the case of `CCOC(=O)c1csc([C@H]2[C@@H](COC)C[C@@](CC(C)C)(C(=O)O)N2C(=O)c2ccc(C(C)(C)C)c(OC)c2)n1`, the CC50 at 72 h in data set [1] was 200 µM. Moreover, in data set [2], the inhibition entry was “Dose-dependent effect”.

In the case of `C=CCOC[C@H]1[C@@H](COC)C[C@@](CC(C)C)(C(=O)O)N1C(=O)c1ccc(C(C)(C)C)c(OC)c1`, the CC50 at 72 h in data set [1] is greater than 120 µM. The inhibition result in data set [2] is “Dose-dependent effect”.

With `CC[C@H]1[C@@H](COC)C[C@@](CC(C)C)(C(=O)O)N1C(=O)c1ccc(C(C)(C)C)c(OC)c1`, the CC50 at 72 h in data set [1] was 200 µM. The inhibition entry in data set [2] was “Dose-dependent effect”.

As for `COC[C@H]1C[C@@](CC(C)C)(C(=O)O)N(C(=O)c2ccc(C(C)(C)C)c(OC)c2)[C@H]1[C@H]1COC(C)(C)O1`, the CC50 at 72 h in data set [1] is greater than 120 µM. For the same compound, the inhibition entry in data set [2] was “Dose-dependent effect”.

In the case of `COC[C@H]1C[C@@](CC(C)C)(C(=O)O)N(C(=O)c2ccc(C(C)(C)C)c(OC)c2)[C@H]1CF`, in data set [1], the CC50 at 72 h was greater than 120 µM. The inhibition result in data set [2] is “Dose-dependent effect”.

For `COC[C@H]1C[C@@](CC(C)C)(C(=O)O)N(C(=O)c2ccc(C(C)(C)C)c(OC)c2)[C@H]1CNC(C)=O`, the CC50 at 72 h in data set [1] was greater than 120 µM. Further, the inhibition result in data set [2] is “Dose-dependent effect”.

`COC[C@H]1C[C@@](CC(C)C)(C(=O)O)N(C(=O)c2ccc(C(C)(C)C)c(OC)c2)[C@H]1C(=O)OC`: the CC50 at 72 h in data set [1] is greater than 120 µM. Moreover, the inhibition entry in data set [2] is “Dose-dependent effect”.

These data come from ChEMBL document CHEMBL4385602, “Stereoselective synthesis and biological evaluation as inhibitors of hepatitis C virus RNA polymerase of GSK3082 analogues with structural diversity at the 5-position” (Eur J Med Chem, 2019).
